Experimental data: patent US10023570B2 (Array BioPharma, Inc., priority 2015, dated 2018)
Read-outs that look alike come from different tables or passages of the source.

What was measured:
[1] = target: N-terminal GST tagged recombinant human RET cytoplasmic domain (aa 658-end), wild type RET kinase (Homo sapiens (Human), UniProt P07949); experiment: RET Enzyme Assay (HTRF KinEASE-TK), wild type RET; format: biochemical; conditions: wild type RET, 1 mM ATP
[2] = target: Kif5b-RET fusion protein in HEK-293 cells (Homo sapiens, UniProt P07949); experiment: cell-based
[3] = target: human KDR protein in HEK-293 cells (Homo sapiens (Human), UniProt P35968); experiment: KDR Cell Assay (phospho-KDR in HEK-293 cells expressing inducible KDR); format: cell-based; conditions: pKDR Cell HEK 10% FBS IC50, HEK-293 cells expressing inducible KDR, VEGF stimulated
Summary of the method: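 HEK-293 cells with inducible human KDR were treated with compound for 1 h in DMEM (0.25% DMSO final), then lysed. Phospho-KDR was quantified by Meso Scale immunoassay, expressed as percent of control, and IC50 taken where a 4-parameter logistic fit crossed 50 POC.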

[4] = HEK-293 cells expressing Kif5b-RET, read-out: KIF5B-RET pTYR1062 Cell IC50
[5] = HEK-293 cells expressing Kif5b-RET, phospho-RET(Tyr1062), read-out: KIF5B-RET pTYR1062 Cell IC50

Sequence of N-terminal GST tagged recombinant human RET cytoplasmic domain (aa 658-end), wild type RET kinase (P07949 658-1114): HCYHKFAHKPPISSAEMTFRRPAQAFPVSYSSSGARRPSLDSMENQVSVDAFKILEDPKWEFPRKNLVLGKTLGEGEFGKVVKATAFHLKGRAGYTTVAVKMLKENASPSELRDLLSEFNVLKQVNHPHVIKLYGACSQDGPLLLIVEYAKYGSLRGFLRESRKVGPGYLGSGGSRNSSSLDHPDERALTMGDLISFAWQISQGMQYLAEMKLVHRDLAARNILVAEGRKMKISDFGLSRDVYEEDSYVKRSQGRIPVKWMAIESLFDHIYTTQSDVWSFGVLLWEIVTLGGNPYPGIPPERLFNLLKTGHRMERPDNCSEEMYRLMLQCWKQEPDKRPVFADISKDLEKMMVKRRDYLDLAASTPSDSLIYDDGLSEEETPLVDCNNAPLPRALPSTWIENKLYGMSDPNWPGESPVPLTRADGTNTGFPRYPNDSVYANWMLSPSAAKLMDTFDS
Sequence of human KDR protein in HEK-293 cells (P35968 20-1356): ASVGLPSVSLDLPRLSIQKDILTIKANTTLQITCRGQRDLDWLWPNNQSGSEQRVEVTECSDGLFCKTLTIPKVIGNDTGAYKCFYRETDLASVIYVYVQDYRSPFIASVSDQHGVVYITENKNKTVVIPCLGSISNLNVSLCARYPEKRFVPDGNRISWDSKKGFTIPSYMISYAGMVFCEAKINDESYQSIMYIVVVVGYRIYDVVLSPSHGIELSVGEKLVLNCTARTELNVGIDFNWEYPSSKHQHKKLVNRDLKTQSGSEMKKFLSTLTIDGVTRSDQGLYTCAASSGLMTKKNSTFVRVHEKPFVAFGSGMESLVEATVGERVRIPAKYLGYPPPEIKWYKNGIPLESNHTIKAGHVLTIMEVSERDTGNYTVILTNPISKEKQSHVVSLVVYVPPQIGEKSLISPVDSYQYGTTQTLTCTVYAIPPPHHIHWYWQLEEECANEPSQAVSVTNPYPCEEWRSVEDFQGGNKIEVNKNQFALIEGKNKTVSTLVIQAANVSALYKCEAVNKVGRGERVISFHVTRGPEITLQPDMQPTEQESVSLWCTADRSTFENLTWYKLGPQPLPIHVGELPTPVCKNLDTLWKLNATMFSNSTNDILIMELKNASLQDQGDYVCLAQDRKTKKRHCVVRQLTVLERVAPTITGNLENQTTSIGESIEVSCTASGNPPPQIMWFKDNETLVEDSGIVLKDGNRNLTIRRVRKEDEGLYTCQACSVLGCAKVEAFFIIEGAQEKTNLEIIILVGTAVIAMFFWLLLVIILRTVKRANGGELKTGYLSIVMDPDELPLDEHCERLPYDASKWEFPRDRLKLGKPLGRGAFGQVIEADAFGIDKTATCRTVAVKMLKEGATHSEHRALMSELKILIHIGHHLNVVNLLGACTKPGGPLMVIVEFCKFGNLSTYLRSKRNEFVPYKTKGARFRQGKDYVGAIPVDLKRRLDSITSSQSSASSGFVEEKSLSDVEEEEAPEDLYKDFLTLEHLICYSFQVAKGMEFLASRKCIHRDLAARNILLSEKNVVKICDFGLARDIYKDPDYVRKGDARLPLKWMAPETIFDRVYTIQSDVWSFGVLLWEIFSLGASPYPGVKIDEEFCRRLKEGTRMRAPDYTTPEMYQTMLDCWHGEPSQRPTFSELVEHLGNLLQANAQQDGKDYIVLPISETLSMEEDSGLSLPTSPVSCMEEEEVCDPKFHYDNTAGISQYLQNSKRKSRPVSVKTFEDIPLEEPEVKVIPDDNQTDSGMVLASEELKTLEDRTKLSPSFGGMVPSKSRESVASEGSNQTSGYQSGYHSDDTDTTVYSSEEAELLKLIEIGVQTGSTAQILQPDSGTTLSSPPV
Sequence of Kif5b-RET fusion protein in HEK-293 cells (P07949 29-1114 limits assumed): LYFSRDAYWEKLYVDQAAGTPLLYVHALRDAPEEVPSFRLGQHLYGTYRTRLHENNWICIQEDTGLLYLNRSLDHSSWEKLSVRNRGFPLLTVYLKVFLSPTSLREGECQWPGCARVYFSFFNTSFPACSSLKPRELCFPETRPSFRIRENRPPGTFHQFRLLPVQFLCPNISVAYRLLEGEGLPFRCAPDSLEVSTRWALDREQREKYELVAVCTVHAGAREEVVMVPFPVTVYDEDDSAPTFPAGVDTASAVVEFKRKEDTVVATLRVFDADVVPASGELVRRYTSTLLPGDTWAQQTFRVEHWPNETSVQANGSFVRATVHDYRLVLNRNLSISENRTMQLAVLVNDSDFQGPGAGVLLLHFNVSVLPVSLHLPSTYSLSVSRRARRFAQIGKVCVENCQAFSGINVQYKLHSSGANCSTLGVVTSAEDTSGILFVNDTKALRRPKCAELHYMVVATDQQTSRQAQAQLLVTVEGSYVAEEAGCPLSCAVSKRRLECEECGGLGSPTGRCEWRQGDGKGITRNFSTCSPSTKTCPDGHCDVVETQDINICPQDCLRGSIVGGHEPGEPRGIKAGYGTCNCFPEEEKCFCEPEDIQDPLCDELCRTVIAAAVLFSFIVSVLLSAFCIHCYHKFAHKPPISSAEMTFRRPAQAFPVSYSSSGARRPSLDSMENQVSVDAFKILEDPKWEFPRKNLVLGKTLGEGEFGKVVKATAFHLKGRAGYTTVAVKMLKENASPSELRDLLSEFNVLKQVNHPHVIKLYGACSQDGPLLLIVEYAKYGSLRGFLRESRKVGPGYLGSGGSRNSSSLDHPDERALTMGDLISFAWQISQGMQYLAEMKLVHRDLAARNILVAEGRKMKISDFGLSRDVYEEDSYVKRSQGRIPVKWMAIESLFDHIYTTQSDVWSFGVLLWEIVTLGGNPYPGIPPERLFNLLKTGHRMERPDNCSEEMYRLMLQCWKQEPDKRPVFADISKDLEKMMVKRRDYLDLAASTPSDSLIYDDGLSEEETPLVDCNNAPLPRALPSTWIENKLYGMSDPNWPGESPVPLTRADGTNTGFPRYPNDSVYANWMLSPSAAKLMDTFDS

SMILES	IC50 [1]	IC50 [2, 4]	IC50 [3]	IC50 ([2]; read-out: KIF5B-RET pTYR1062 Cell IC50)	IC50 ([3]; 10% FBS)	IC50 [2, 5]	IC50 [2]
CO[C@@H](C)CN1CCN(c2ccc(-c3cc(-c4cnn(C)c4)cn4ncc(C#N)c34)cn2)CC1 [Example 415, (S)-4-(6-(4-(2-methoxypropyl)piperazin-1-yl)pyridin-3-yl)-6-(1-methyl-1H-pyrazol-4-yl)pyrazolo[1,5-a]pyridine-3-carbonitrile]	0.0252 µM	0.0254 µM	2.03 µM	–	–	–	–
COC(C)(C)CN1CCN(c2ccc(-c3cc(-c4cnn(C)c4)cn4ncc(C#N)c34)cn2)CC1 [Example 414, 4-(6-(4-(2-methoxy-2-methylpropyl)piperazin-1-yl)pyridin-3-yl)-6-(1-methyl-1H-pyrazol-4-yl)pyrazolo[1,5-a]pyridine-3-carbonitrile]	0.0413 µM	0.0415 µM	2.28 µM	–	–	–	–
Cn1cc(-c2cc(-c3ccc(N4CCN(C(=O)C(C)(C)C)CC4)nc3)c3c(C#N)cnn3c2)cn1 [Example 34, 6-(1-methyl-1H-pyrazol-4-yl)-4-(6-(4-pivaloylpiperazin-1-yl)pyridin-3-yl)pyrazolo[1,5-a]pyridine-3-carbonitrile 2,2,2-trifluoroacetate]	0.0348 µM	–	–	0.0612 µM	3.04 µM	–	–
COCC(=O)N1CCN(c2ccc(-c3cc(-c4cnn(C)c4)cn4ncc(Cl)c34)cn2)CC1 [Example 329, 1-(4-(5-(3-chloro-6-(1-methyl-1H-pyrazol-4-yl)pyrazolo[1,5-a]pyridin-4-yl)pyridin-2-yl)piperazin-1-yl)-2-methoxyethanone]	0.0232 µM	–	–	–	0.381 µM	0.0456 µM	–
COC[C@H](O)CN1CCN(c2ccc(-c3cc(-c4cnn(C)c4)cn4ncc(C#N)c34)cn2)CC1 [Example 151, (R)-4-(6-(4-(2-hydroxy-3-methoxypropyl)piperazin-1-yl)pyridin-3-yl)-6-(1-methyl-1H-pyrazol-4-yl)pyrazolo[1,5-a]pyridine-3-carbonitrile]	0.044 µM	–	–	–	1.43 µM	0.0704 µM	–
C[C@H](O)[C@@H](C)N1CCN(c2ccc(-c3cc(-c4cnn(C)c4)cn4ncc(C#N)c34)cn2)CC1 (racemic) [Example 165, rac-4-(6-(4-((2R*,3S*)-3-hydroxybutan-2-yl)piperazin-1-yl)pyridin-3-yl)-6-(1-methyl-1H-pyrazol-4-yl)pyrazolo[1,5-a]pyridine-3-cartonitrile]	0.0248 µM	–	–	–	2.02 µM	–	0.0289 µM
CC(C)[C@H](O)C(=O)N1CCN(c2ccc(-c3cc(-c4cnn(C)c4)cn4ncc(C#N)c34)cn2)CC1 [Example 54, (S)-4-(6-(4-(2-hydroxy-3-methylbutanoyl)piperazin-1-yl)pyridin-3-yl)-6-(1-methyl-1H-pyrazol-4-yl)pyrazolo[1,5-a]pyridine-3-carbonitrile]	0.0124 µM	–	–	–	1.48 µM	0.0666 µM	–
CCC1(C(=O)NC(C)C)CCN(c2ccc(-c3cc(-c4cnn(C)c4)cn4ncc(C#N)c34)cn2)CC1 [Example 256, 1-(5-(3-cyano-6-(1-methyl-1H-pyrazol-4-yl)pyrazolo[1,5-a]pyridin-4-yl)pyridin-2-yl)-4-ethyl-N-isopropylpiperidine-4-carboxamide]	0.0129 µM	–	–	–	0.735 µM	0.0045 µM	–
Cn1cc(-c2cc(-c3ccc(N4CCN(CCOC(C)(C)C)CC4)nc3)c3c(C#N)cnn3c2)cn1 [Example 420, 4-(6-(4-(2-(tert-butoxy)ethyl)piperazin-1-yl)pyridine-3-yl)-6-(1-methyl-1H-pyrazol-4-yl)pyrazolo[1,5-a]pyridine-3-carbonitrile]	0.0109 µM	0.0056 µM	0.792 µM	–	–	–	–
CCC(=O)N1CCN(c2ccc(-c3cc(-c4cnn(C)c4)cn4ncc(C#N)c34)cn2)CC1 [Example 67, 6-(1-methyl-1H-pyrazol-4-yl)-4-(6-(4-propionylpiperazin-1-yl)pyridin-3-yl)pyrazolo[1,5-a]pyridine-3-carbonitrile]	0.0194 µM	–	–	–	0.521 µM	0.0607 µM	–
CN(C)CC(=O)N1CCN(c2ccc(-c3cc(-c4cnn(C)c4)cn4ncc(Cl)c34)cn2)CC1 [Example 328, 1-(4-(5-(3-chloro-6-(1-methyl-1H-pyrazol-4-yl)pyrazolo[1,5-a]pyridin-4-yl)pyridin-2-yl)piperazin-1-yl)-2-(dimethylamino)ethanone]	0.0621 µM	–	–	–	1.37 µM	0.0604 µM	–
CN(C)C(=O)NC1CCN(c2ccc(-c3cc(-c4cnn(C)c4)cn4ncc(C#N)c34)cn2)CC1 [Example 186, 3-(1-(5-(3-cyano-6-(1-methyl-1H-pyrazol-4-yl)pyrazolo[1,5-a]pyridin-4-yl)pyridin-2-yl)piperidin-4-yl)-1,1-dimethylurea]	0.0143 µM	–	–	–	0.451 µM	0.0225 µM	–
CCC1(C(=O)NC(C)C)CCN(c2ccc(-c3cc(-c4cnn(C)c4C)cn4ncc(C#N)c34)cn2)CC1 [Example 597, 1-(5-(3-cyano-6-(1,5-dimethyl-1H-pyrazol-4-yl)pyrazolo[1,5-a]pyridin-4-yl)pyridin-2-yl)-4-ethyl-N-isopropylpiperidine-4-carboxamide]	0.034 µM	0.0397 µM	0.83 µM	–	–	–	–
C[C@H](O)C(=O)N1CCN(c2ccc(-c3cc(-c4cnn(C)c4)cn4ncc(C#N)c34)cn2)CC1 [Example 30, (S)-4-(6-(4-(2-hydroxypropanoyl)piperazin-1-yl)pyridin-3-yl)-6-(1-methyl-1H-pyrazol-4-yl)pyrazolo[1,5-a]pyridine-3-carbonitrile]	0.0221 µM	–	–	–	0.921 µM	0.124 µM	–
Cn1cc(-c2cc(-c3ccc(N4CCN(CCNC(=O)OC(C)(C)C)CC4)nc3)c3c(C#N)cnn3c2)cn1 [Example 506, tert-butyl (2-(4-(5-(3-cyano-6-(1-methyl-1H-pyrazol-4-yl)pyrazolo[1,5-a]pyridin-4-yl)pyridin-2-yl)piperazin-1-yl)ethyl)carbamate]	0.0313 µM	–	0.212 µM	–	–	–	0.0065 µM
CC(C)C(=O)N[C@@H]1CCCN(c2ccc(-c3cc(-c4cnn(C)c4)cn4ncc(C#N)c34)cn2)C1 [Example 226, (R)—N-(1-(5-(3-cyano-6-(1-methyl-1H-pyrazol-4-yl)pyrazolo[1,5-a]pyridin-4-yl)pyridin-2-yl)piperidin-3-yl)isobutyramide]	0.0318 µM	–	–	–	1.17 µM	0.0571 µM	–
Cn1cc(-c2cc(-c3ccc(N4CCC(C(=O)NCCC(F)(F)F)CC4)nc3)c3c(C#N)cnn3c2)cn1 [Example 242, 1-(5-(3-cyano-6-(1-methyl-1H-pyrazol-4-yl)pyrazolo[1,5-a]pyridin-4-yl)pyridin-2-yl)-N-(3,3,3-trifluoropropyl)piperidine-4-carboxamide]	0.0045 µM	–	–	–	0.223 µM	0.0063 µM	–
Cn1cc(-c2cc(-c3ccc(N4CCN(C(=O)C(C)(C)O)CC4)nc3)c3c(C#N)cnn3c2)cn1 [Example 31, 4-(6-(4-(2-hydroxy-2-methylpropanoyl)piperazin-1-yl)pyridin-3-yl)-6-(1-methyl-1H-pyrazol-4-yl)pyrazolo[1,5-a]pyridine-3-carbonitrile]	0.0367 µM	–	–	–	2.55 µM	0.0761 µM	–
Cn1cc(-c2cc(-c3ccc(N4CCC(O)CC4)nc3)c3c(C#N)cnn3c2)cn1 [Example 196, 4-(6-(4-hydroxypiperidin-1-yl)pyridin-3-yl)-6-(1-methyl-1H-pyrazol-4-yl)pyrazolo[1,5-a]pyridine-3-carbonitrile]	0.0109 µM	–	–	–	0.63 µM	0.0455 µM	–
C[C@@H](O)C(=O)N1CCN(c2ccc(-c3cc(-c4cnn(C)c4)cn4ncc(C#N)c34)cn2)CC1 [Example 32, (R)-4-(6-(4-(2-hydroxypropanoyl)piperazin-1-yl)pyridin-3-yl)-6-(1-methyl-1H-pyrazol-4-yl)pyrazolo[1,5-a]pyridine-3-carbonitrile]	0.0239 µM	–	–	–	0.749 µM	0.108 µM	–
CC(C)CC(=O)N1CCN(c2ccc(-c3cc(-c4cnn(C(F)F)c4)cn4ncc(C#N)c34)cn2)CC1 [Example 267, 6-(1-(difluoromethyl)-1H-pyrazol-4-yl)-4-(6-(4-(3-methylbutanoyl)piperazin-1-yl)pyridin-3-yl)pyrazolo[1,5-a]pyridine-3-carbonitrile]	0.011 µM	–	–	–	2.76 µM	0.0136 µM	–
COCC(C)(C)C(=O)N1CCN(c2ccc(-c3cc(-c4cnn(C)c4)cn4ncc(C#N)c34)cn2)CC1 [Example 352, 4-(6-(4-(3-methoxy-2,2-dimethylpropanoyl)piperazin-1-yl)pyridin-3-yl)-6-(1-methyl-1H-pyrazol-4-yl)pyrazolo[1,5-a]pyridine-3-carbonitrile]	0.0139 µM	–	–	–	2.2 µM	0.0137 µM	–
CCC(C)(O)CC(=O)N1CCN(c2ccc(-c3cc(-c4cnn(C)c4)cn4ncc(C#N)c34)cn2)CC1 (stereo not drawn) [Example 63, 4-(6-(4-(3-hydroxy-3-methylpentanoyl)piperazin-1-yl)pyridin-3-yl)-6-(1-methyl-1H-pyrazol-4-yl)pyrazolo[1,5-a]pyridine-3-carbonitrile]	0.0115 µM	–	–	–	0.527 µM	0.0082 µM	–
CC(C)NC(=O)C1(C)CCN(c2ccc(-c3cc(-c4cnn(C)c4)cn4ncc(C#N)c34)cn2)CC1 [Example 251, 1-(5-(3-cyano-6-(1-methyl-1H-pyrazol-4-yl)pyrazolo[1,5-a]pyridin-4-yl)pyridin-2-yl)-N-isopropyl-4-methylpiperidine-4-carboxamide]	0.0078 µM	–	–	–	0.495 µM	0.0056 µM	–
